Results reported in article PMC6213981, “Crystal structures and kinetics of N-acetylneuraminate lyase from Fusobacterium nucleatum” (Acta Crystallographica. Section F, Structural Biology …, 2018).

Target: T1, FnNanA (Fusobacterium nucleatum, UniProt Q8RDN6)
T1 construct: gene nanA; pET300/NT-DEST, synthetic DNA, E. coli BL21 (DE3); tetramer
T1 sequence (Q8RDN6 1-290): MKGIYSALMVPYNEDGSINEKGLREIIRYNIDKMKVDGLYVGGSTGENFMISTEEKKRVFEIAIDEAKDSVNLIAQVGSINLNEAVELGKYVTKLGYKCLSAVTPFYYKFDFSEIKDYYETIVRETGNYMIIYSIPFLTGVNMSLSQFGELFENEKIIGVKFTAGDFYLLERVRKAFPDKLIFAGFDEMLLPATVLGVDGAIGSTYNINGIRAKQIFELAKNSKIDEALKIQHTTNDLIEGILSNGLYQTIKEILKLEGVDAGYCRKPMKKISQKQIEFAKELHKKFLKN
Test: X-ray crystal structure, […] Å
Format: binding
Conditions: covalent; Schiff base with Lys161 in active site; crystallised at pH 9.5, 277 K

Compound: CC(=O)C(=O)O [pyruvate]
- X-ray crystal structure, 1.76 Å: N∊ atom of Lys161 is conjugated as a Schiff base to the C2 atom of pyruvate
